Experiment [1] addresses T1, Ectonucleotide pyrophosphatase/phosphodiesterase family member 1 (Homo sapiens) (UniProt P22413).
T1 sequence (whole entry): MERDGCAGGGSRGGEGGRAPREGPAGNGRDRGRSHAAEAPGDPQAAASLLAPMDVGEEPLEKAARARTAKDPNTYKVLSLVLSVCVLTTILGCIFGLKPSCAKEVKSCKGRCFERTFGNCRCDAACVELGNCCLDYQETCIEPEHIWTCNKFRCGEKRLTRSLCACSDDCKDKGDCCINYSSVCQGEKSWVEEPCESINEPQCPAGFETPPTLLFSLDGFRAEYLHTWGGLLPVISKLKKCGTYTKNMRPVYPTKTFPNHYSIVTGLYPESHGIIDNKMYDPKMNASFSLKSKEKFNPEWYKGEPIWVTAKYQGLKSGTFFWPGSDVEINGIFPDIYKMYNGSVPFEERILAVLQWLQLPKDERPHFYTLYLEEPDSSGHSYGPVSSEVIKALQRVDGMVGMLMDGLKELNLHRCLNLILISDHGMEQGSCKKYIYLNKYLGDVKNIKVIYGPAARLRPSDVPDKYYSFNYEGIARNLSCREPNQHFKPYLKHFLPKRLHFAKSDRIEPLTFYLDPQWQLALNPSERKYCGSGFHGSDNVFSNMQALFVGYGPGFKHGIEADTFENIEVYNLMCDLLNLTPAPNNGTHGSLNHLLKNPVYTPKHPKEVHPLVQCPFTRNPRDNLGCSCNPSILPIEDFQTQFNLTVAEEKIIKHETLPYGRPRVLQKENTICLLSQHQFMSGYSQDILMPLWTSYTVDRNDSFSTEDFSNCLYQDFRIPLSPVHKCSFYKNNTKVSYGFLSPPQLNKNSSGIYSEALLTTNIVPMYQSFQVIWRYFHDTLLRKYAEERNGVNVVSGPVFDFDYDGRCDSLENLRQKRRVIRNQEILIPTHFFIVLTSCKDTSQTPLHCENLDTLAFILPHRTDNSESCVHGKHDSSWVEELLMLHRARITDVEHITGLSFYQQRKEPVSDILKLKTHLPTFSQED
As to the kind of experiment: Inhibition of human GFP-fused NPP1 expressed in COS7 cells at 1 uM using pnp-TMP as substrate after 60 mins relative to control. In kind it is cell-based.

Experiment [2] addresses T2, Ectonucleotide pyrophosphatase/phosphodiesterase family member 1 (Homo sapiens, UniProt P22413).
T2 sequence (P22413 whole entry): T1 sequence (whole entry)
Put plainly: Inhibition of human GFP-fused NPP1 expressed in COS7 cells using pnp-TMP as substrate after 60 mins. It is filed as cell-based.

A word on the inhibition: it is the relative decrease from the control value, in per cent. The low end stands for a response near the control, the high end for a response far below the control. Usually Ki stands for the dissociation constant of the complex between target and ligand, obtained from inhibition or displacement. A high value points to a looser hold on the target.

Regarding `COc1cc2nc(/C=C/c3ccccc3F)nc(N3CCC(CCNS(N)(=O)=O)CC3)c2cc1OC`, in experiment [1], the inhibition stood at 78%. The molecule also returned a Ki in experiment [2] of 211 nM.

The molecule `COc1cc2nc(/C=C/c3cccnc3)nc(N3CCC(CCNS(N)(=O)=O)CC3)c2cc1OC` had an inhibition in experiment [1] of 86%. Moreover, the Ki in experiment [2] is 58 nM.

In experiment [1], `COc1ccccc1/C=C/c1nc(N2CCC(CCNS(N)(=O)=O)CC2)c2cc(OC)c(OC)cc2n1` yielded an inhibition of 74%. The same molecule yielded a Ki in experiment [2] of 302 nM.

As for `COc1cc2nc(CC3OC(=O)c4ccccc43)nc(N3CCC(CCNS(N)(=O)=O)CC3)c2cc1OC` (stereo not given), the inhibition in experiment [1] worked out at 79%. Moreover, the Ki in experiment [2] is 90 nM.

`COc1cc2nc(CCc3ccc(F)cc3)nc(N3CCC(CCNS(N)(=O)=O)CC3)c2cc1OC` displayed an inhibition in experiment [1] of 69%. In experiment [2], this molecule showed a Ki of 366 nM.

The molecule `COc1ccc2ncnc(N3CCC(CCNS(N)(=O)=O)CC3)c2c1` displayed an inhibition in experiment [1] of 71%. Besides, the inhibitory constant (Ki) in experiment [2] was found to be 242 nM.

In turn, `CCCOc1cc2c(Cl)ncnc2cc1OC` showed an inhibition in experiment [1] of 29%. In experiment [2], this molecule yielded a Ki of 3240 nM.

In experiment [1], `COc1cc2ncnc(N3CCC(CC#N)CC3)c2cc1OC` yielded an inhibition of less than 1%.

`COc1cc2nc(/C=C/c3ccc(F)cc3)nc(N3CCC(CCNS(N)(=O)=O)CC3)c2cc1OC` gave an inhibition in experiment [1] of 70%. This molecule also gave an inhibition constant (Ki) in experiment [2] of 465 nM.

The molecule `CCCCOc1cc2c(Cl)ncnc2cc1OC` registered an inhibition in experiment [1] of less than 1%.

In turn, `COc1cc2ncnc(N3CCC(CCNS(C)(=O)=O)CC3)c2cc1OC` displayed an inhibition in experiment [1] of 12%.

`COc1cc2ncnc(Cl)c2cc1OC/C=C/S(F)(F)(F)(F)F` displayed an inhibition in experiment [1] of 15%. Further, the inhibition constant (Ki) in experiment [2] is 7970 nM.

As to `COc1cc2ncnc(N3CCC(CCNC(C)=O)CC3)c2cc1OC`, the inhibition in experiment [1] amounted to 9%.

In experiment [1], `CCOc1cc2c(Cl)ncnc2cc1OC` had an inhibition of 48%. Besides, the Ki in experiment [2] turned out to be 1310 nM.

The molecule `COC(=O)c1cccc(/C=C/c2nc(N3CCC(CCNS(N)(=O)=O)CC3)c3cc(OC)c(OC)cc3n2)c1` came in with an inhibition in experiment [1] of 74%. In experiment [2], this molecule displayed a Ki of 297 nM.

In turn, `COc1cc2ncnc(N3CCC(CCNS(N)(=O)=O)CC3)c2cc1OC` had an inhibition in experiment [1] of 87%.

Molecule `COc1cc2nc(/C=C/c3ccncc3)nc(N3CCC(CCNS(N)(=O)=O)CC3)c2cc1OC` had an inhibition in experiment [1] of 79%. The molecule also yielded a Ki in experiment [2] of 218 nM.

Consider `CCOC(=O)C1CCN(c2ncnc3cc(OC)c(OC)cc23)CC1`, for which the inhibition in experiment [1] came out at 12%.

In turn, `COc1cc2nc(/C=C/c3cccc(F)c3)nc(N3CCC(CCNS(N)(=O)=O)CC3)c2cc1OC` registered an inhibition in experiment [1] of 14%. Moreover, the affinity in experiment [2], expressed as Ki, was 3580 nM.

In experiment [1], `COC(=O)c1ccc(/C=C/c2nc(N3CCC(CCNS(N)(=O)=O)CC3)c3cc(OC)c(OC)cc3n2)cc1` came in with an inhibition of 43%. Further, the affinity in experiment [2], expressed as Ki, was 1340 nM.

On to `COc1cccc(/C=C/c2nc(N3CCC(CCNS(N)(=O)=O)CC3)c3cc(OC)c(OC)cc3n2)c1`, for which the inhibition in experiment [1] is 88%. In experiment [2], this molecule registered an inhibitory constant (Ki) of 101 nM.

The molecule `COc1cc2nc(/C=C/c3ccccn3)nc(N3CCC(CCNS(N)(=O)=O)CC3)c2cc1OC` gave an inhibition in experiment [1] of 85%. The molecule also displayed a Ki in experiment [2] of 71 nM.

As for `COc1cc2ncnc(N3CCC(CCN)CC3)c2cc1OC`, the inhibition in experiment [1] worked out at 45%. The Ki in experiment [2] was found to be 699 nM.

`COc1ccc(/C=C/c2nc(N3CCC(CCNS(N)(=O)=O)CC3)c3cc(OC)c(OC)cc3n2)cc1`: the inhibition in experiment [1] is 66%. In experiment [2], this molecule returned a Ki of 231 nM.

In experiment [1], `COc1cc2nc(/C=C/c3ccccc3)nc(N3CCC(CCNS(N)(=O)=O)CC3)c2cc1OC` had an inhibition of 33%. The Ki in experiment [2] came to 1840 nM.

The molecule `COc1cc2ncnc(N3CCC(CO)CC3)c2cc1OC` gave an inhibition in experiment [1] of 11%.

(Values after ChEMBL document CHEMBL4145537, “Synthesis and biological evaluation of novel quinazoline-4-piperidinesulfamide derivatives as inhibitors of NPP1” (Eur J Med Chem, 2018).)
